# Tests used:
# [1] = molecular target: human metabotropic glutamate receptor 5 (hmGluR5); experiment: Calcium mobilization (FLIPR) assay, negative allosteric modulation of the EC80 glutamate response; type: cell-based; conditions: HEK 293 cells, inhibition of EC80 glutamate response
# Method: (§1) The cDNA for human metabotropic glutamate receptor 5 (hmGluR5) was a generous gift from S. Nakanishi (Kyoto University, Kyoto, Japan). The […] was stably expressed in a HEK 293 cell line and grown in Dulbecco's Modified Eagle Medium (DMEM) (Invitrogen, Carlsbad, Calif.) with supplements (10% bovine calf serum, 4 mM glutamine, 100 units/mL penicillin, 100 μg/mL streptomycin and […]) at 37° C., 5% CO2. Twenty-four hours prior to assay, cells were seeded into 384-well black wall microtiter plates coated with poly-D-lysine. Just prior to assay, media was aspirated and cells dye-loaded (25 μL/well) with 3 μM Fluo-4/0.01% pluronic acid in assay buffer (Hank's Balanced Saline Solution (HBSS)): 150 mM NaCl, 5 mM KCl, 1 mM CaCl2, 1 mM MgCl2, plus 20 mM N-2-Hydroxyethylpiperazine-N′-2-ethanesulfonic acid (HEPES), pH 7.4, 0.1% bovine serum albumin (BSA) and 2.5 mM probenicid) for 1 hour in 5% CO2 at 37° C. After excess dye was discarded, cells were washed in assay buffer and layered with a final volume equal to 30 μL/well. Basal fluorescence is monitored in a fluorometric imaging plate reader (FLIPR) (Molecular Devices, Sunnyvale, Calif.) with an excitation wavelength of 488 nm and an emission range of 500 to 560 nm. Laser excitation energy was adjusted so that basal fluorescence readings were approximately 10,000 relative fluorescent units. Cells were stimulated with an EC20 or an EC80 concentration of glutamate in the presence of a compound to be tested, both diluted in assay buffer, and relative fluorescent units were measured at defined intervals (exposure=0.6 sec) over a 3 min period at room temperature. Basal readings derived from negative controls were subtracted from all samples. Maximum change in fluorescence was calculated for each well. Concentration-response curves derived from the maximum change in fluorescence were analyzed by nonlinear regression (Hill equation).
# A negative allosteric modulator (NAM) can be identified from these concentration-response curves if a compound produces a concentration dependent inhibition of the EC80 glutamate response.
# [2] = molecular target: human metabotropic glutamate receptor 5 (hmGluR5) (UniProt P31424); experiment: Calcium mobilization (FLIPR) assay, positive allosteric modulation of the EC20 glutamate response; type: cell-based; conditions: HEK 293 cells; for maximum modulation (Emax): EC20 glutamate response; for EC50: increase in EC20 glutamate response
# Method: as §1
# A silent allosteric modulator (SAM) can be identified by using a combination of both the calcium mobilization assay data and the radioligand binding data. As used herein, the term “silent allosteric modulator” refers to a ligand that binds to an allosteric site of the receptor but has no measurable intrinsic efficacy.
IC50 [1] [nM],maximum modulation (Emax) [2] [%],EC50 [2] [nM],SMILES
,120,760,"COC1CN(Cc2cnc(C#Cc3ccccc3)s2)C1 [Example 214, 5-(3-Methoxy-azetidin-1-ylmethyl)-2-phenylethynyl-thiazole]"
,79,380,"C(#Cc1ncc(CN2CC3CCC2C3)s1)c1ccccc1 (stereo not drawn) [Example 218, 2-(2-Phenylethynyl-thiazol-5-ylmethyl)-2-aza-bicyclo[2.2.1]heptane]"
,110,36,"FC1(F)CCN(Cc2cnc(C#Cc3ccccc3)s2)CC1 [Example 223, 4,4-Difluoro-1-(2-phenylethynyl-thiazol-5-ylmethyl)-piperidine]"
,110,33,"F[C@@H]1CCN(Cc2cnc(C#Cc3ccccc3)s2)C1 [Example 230, 5-((R)-3-Fluoro-pyrrolidin-1-ylmethyl)-2-phenylethynyl-thiazole]"
,62,220,"CC(c1cnc(C#Cc2ccccc2)s1)N1CCOCC1 (stereo not drawn) [Example 232, 4-[1-(2-Phenylethynyl-thiazol-5-yl)-ethyl]-morpholine]"
,50,53,"OC(c1cnc(C#Cc2ccccc2)s1)C1CCCCC1 (stereo not drawn) [Example 235, Cyclohexyl-(2-phenylethynyl-thiazol-5-yl)-methanol]"
,130,110,"O=C(c1cnc(C#Cc2ccccc2)s1)C1CCCCC1 [Example 238, Cyclohexyl-(2-phenylethynyl-thiazol-5-yl)-methanone]"
,170,190,"CC(=O)c1cnc(C#Cc2ccccc2)s1 [Example 239, 1-(2-Phenylethynyl-thiazol-5-yl)-ethanone]"

# The next lines start with the molecule.
SMILES,IC50 [1] [nM],maximum modulation (Emax) [2] [%],EC50 [2] [nM]
"O=C(c1cnc(C#Cc2ccccc2)s1)N1CCCC1 [Example 4, (2-Phenylethynyl-thiazol-5-yl)-pyrrolidin-1-yl-methanone]",3.2,,
"O=C(c1cnc(C#Cc2ccccc2)s1)N1CC[C@H](F)C1 [Example 5, ((S)-3-Fluoro-pyrrolidin-1-yl)-(2-phenylethynyl-thiazol-5-yl)-methanone]",3.2,,
"O=C(c1cnc(C#Cc2ccccc2)s1)N1CC[C@@H](F)C1 [Example 6, ((R)-3-Fluoro-pyrrolidin-1-yl)-(2-phenylethynyl-thiazol-5-yl)-methanone]",37,,
"Cc1nc(C#Cc2ccccc2)sc1C(=O)N1CCCCC1 [Example 13, (4-Methyl-2-phenylethynyl-thiazol-5-yl)-piperidin-1-yl-methanone]",53,,
"Cc1nc(C#Cc2ccccc2)sc1C(=O)NC1CCCC1 [Example 16, 4-Methyl-2-phenylethynyl-thiazole-5-carboxylic acid cyclopentylamide]",36,,
"O=C(c1cnc(C#Cc2cccc(F)c2)s1)N1CCCC1 [Example 21, [2-(3-Fluoro-phenylethynyl)-thiazol-5-yl]-pyrrolidin-1-yl-methanone]",7.1,,
"Cc1cccc(C#Cc2ncc(C(=O)NC3CCCC3)s2)c1 [Example 24, 2-m-Tolylethynyl-thiazole-5-carboxylic acid cyclopentylamide]",0.7,,
"O=C(c1cnc(C#Cc2ccccc2)s1)N1CC(F)(F)C1 [Example 114, (3,3-Difluoro-azetidin-1-yl)-(2-phenylethynyl-thiazol-5-yl)-methanone]",54,,
"C(#Cc1ncc(CN2CCCCC2)s1)c1ccccc1 [Example 206, 1-(2-Phenylethynyl-thiazol-5-ylmethyl)-piperidine]",,130,97
"C(#Cc1ncc(CN2CCCC2)s1)c1ccccc1 [Example 207, 2-Phenylethynyl-5-pyrrolidin-1-ylmethyl-thiazole]",,110,220
"CN(C)Cc1cnc(C#Cc2ccccc2)s1 [Example 212, Dimethyl-(2-phenylethynyl-thiazol-5-ylmethyl)-amine]",,71,37

# Reference: patent publication US8440837B2, “2-substituted-ethynylthiazole derivatives and uses of same” (H. Lundbeck A/S, priority 2009, dated 2013)
